What was measured:
[1] = system: isolated rat liver mitochondria; assay: Mitochondrial membrane potential (safranine O); format: biochemical; conditions: 30 µM, 10-min incubation, mean ± SD, n ≥ 5; for ΔΨm, % depolarization, CII (s/r): energized with succinate in the presence of rotenone; for ΔΨm, % depolarization, CI (g/m): energized with Complex-I substrates (glutamate, malate)
Source text: Mitochondria and the mitochondrial permeability transition (MPT) are key players in the cascades of events leading to cell death. Consequently, inhibition of the MPT is a promising target in neuroprotection. On the other hand, depolarization of mitochondria is widely used a predictor of toxicity[72] but depolarization connected with uncoupling of the respiratory chain or stimulation of electron flux can also be cytoprotective. Due to its redox-cycling capability, MB can restore the electron flux in the respiratory chain in the presence of inhibitors of complex-I[74]. […] Consequently, we measured the effect of our conjugates of MB and γ-carbolines on mitochondrial membrane potential under two conditions. (C1) Mitochondria were energized with NADH-dependent substrates of Complex-I (glutamate and malate). (CII) Mitochondria were energized with an FADH2-dependent substrate of Complex II (succinate) in the presence of rotenone, a Complex-I inhibitor. Conjugates (30 μM) were incubated with mitochondria and the effect on mitochondrial membrane potential was measured. For comparison, mitochondria were incubated with MB, MBH2, and Dimebon (30 μM each).
Safranine O (10 µM) was used as a membrane potential probe. Fluorescence intensity at 580 nm (excitation at 520 nm) was measured with Victor3 multi-well fluorescence plate reader (Perkin Elmer, Germany). Mitochondrial protein concentration was 0.2 mg/ml. The medium for measurements contained 75 mM sucrose, 225 mM mannitol, 10 mM K-HEPES, 0.02 mM EGTA, and 1 mM KH2PO4 (pH 7.4, 25 °C). After a 5-min incubation, 5 mM glutamate/malate or 5 mM succinate and 0.5 μM rotenone were added to produce the mitochondrial potential. Then the compounds (30 μM) or the same volume of vehicle (DMSO) were injected into the mitochondrial suspension. After 15–20 min, CaCl2 (12.5 μM) was added to each probe to induce the depolarization of mitochondria and after 5 min 0.5 µM carbonyl cyanide m-chlorophenyl hydrazone (CCCP) was added for maximum depolarization of mitochondria. The level of depolarization (ΔΨm) was calculated from the fluorescence value after a 10-min incubation with 30 µM of compounds (or vehicle) normalized between fluorescence measurements after substrate and CCCP additions.

[2] = ABTS radical cation scavenging assay; conditions: for radical-scavenging activity, ABTS method: result in words; for ABTS·+ scavenging activity, TEAC value: Trolox equivalent antioxidant capacity, ratio of slopes compound/Trolox; for ABTS·+ scavenging activity, TEAC value / IC50: 1 h incubation; for IC50: concentration reducing ABTS·+ by 50%
Experimental: This assay is based on the production of a stable dark green ABTS cation-radical (ABTS^·+) by incubating ABTS ([2,2′-azino-bis(3-eth-ylbenzothiazoline-6-sulfonic acid diammonium salt)) with potassium persulfate. […] The ABTS radical-scavenging activity of the compounds was measured according to an established method[66] with some modifications, at 30 °С in the dark; incubation time was 1 hour. […] The results were expressed as TEAC values (Trolox equivalent antioxidant capacity) calculated by dividing the slope of ABTS^·+ concentration decrease versus the antioxidant concentration by the slope of the Trolox plot.
Radical scavenging activity of the compounds was assessed using an ABTS radical decolorization assay[66] with some minor modifications. ABTS (2,2′-azino-bis-(3-ethylbenzothiazoline-6-sulfonic acid) diammonium salt) was purchased from TCI (Tokyo, Japan); potassium persulfate (di-potassium peroxodisulfate) and Trolox (6-hydroxy-2,5,7,8-tetramethychroman-2-carboxylic acid were obtained from Sigma-Aldrich Chemical Co. (St. Louis, MO, USA). Ethanol was HPLC grade. Aqueous solutions were prepared using deionized water.
Trolox was used as the antioxidant standard. A 5 mM solution of Trolox was prepared in DMSO for use as stock. Fresh working solutions of known concentrations (1–100 μM) were prepared on the day of experiments and used for calibration and as positive controls for ABTS radical cation (ABTS^•+) scavenging activity. ABTS was dissolved in deionized water to a 7 mM concentration. […] Fresh working ABTS^•+ solution was prepared for each assay.
The radical scavenging capacity of the compounds was analyzed by mixing 10 μl of compound with 240 μl of ABTS^•+ working solution. […] Ethanol blanks were run in each assay. Values were obtained from three replicates of each sample and three independent experiments.
Antioxidant capacity as a Trolox equivalent (TEAC values) was determined as the ratio between the slopes obtained from the linear correlation for concentrations of test compounds and Trolox with absorbance of ABTS radical.

## CN(C)c1ccc2c(c1)Sc1cc(N(C)C)ccc1N2 [MBH2, leucomethylene blue, reference compound]
[1]
  ΔΨm, % depolarization, CII (s/r): 18 ± 1%
[2]
  radical-scavenging activity, ABTS method: not detectable

## CN(C)c1ccc2nc3ccc(=[N+](C)C)cc-3sc2c1 [MB, methylene blue, reference compound]
[1]
  ΔΨm, % depolarization, CI (g/m): 14 ± 7%
  ΔΨm, % depolarization, CII (s/r): 40 ± 9%
[2]
  radical-scavenging activity, ABTS method: not detectable

## Cc1ccc2c(c1)c1c(n2CCC(=O)N2c3ccc(N(C)C)cc3Sc3cc(N(C)C)ccc32)CCN(C(C)C)C1.Cl.Cl.Cl [Compound 6]
[1]
  ΔΨm, % depolarization, CI (g/m): 8 ± 2%
  ΔΨm, % depolarization, CII (s/r): 44 ± 5%
[2]
  ABTS·+ scavenging activity, TEAC value: 0.96 ± 0.07
  IC50: 21.2 ± 1.75 µM

## Cc1ccc2c(c1)c1c(n2CCC(=O)N2c3ccc(N(C)C)cc3Sc3cc(N(C)C)ccc32)CCN(C)C1 [Compound 3]
[1]
  ΔΨm, % depolarization, CI (g/m): 29 ± 11%
  ΔΨm, % depolarization, CII (s/r): 67 ± 2%
[2]
  ABTS·+ scavenging activity, TEAC value: 0.79 ± 0.06
  IC50: 27.5 ± 1.64 µM

## CCN1CCc2c(c3cc(C)ccc3n2CCC(=O)N2c3ccc(N(C)C)cc3Sc3cc(N(C)C)ccc32)C1.Cl.Cl.Cl [Compound 4]
[1]
  ΔΨm, % depolarization, CI (g/m): 9 ± 1%
  ΔΨm, % depolarization, CII (s/r): 43 ± 3%
[2]
  ABTS·+ scavenging activity, TEAC value: 0.99 ± 0.08
  IC50: 20.5 ± 2.05 µM

## CN1CCc2c(c3ccccc3n2CCC(=O)N2c3ccc(N(C)C)cc3Sc3cc(N(C)C)ccc32)C1.Cl.Cl.Cl [Compound 1]
[1]
  ΔΨm, % depolarization, CI (g/m): 20 ± 1%
  ΔΨm, % depolarization, CII (s/r): 64 ± 2%
[2]
  ABTS·+ scavenging activity, TEAC value: 0.63 ± 0.045
  IC50: 35.4 ± 3.4 µM

## CCCN1CCc2c(c3cc(C)ccc3n2CCC(=O)N2c3ccc(N(C)C)cc3Sc3cc(N(C)C)ccc32)C1.Cl.Cl.Cl [Compound 5]
[1]
  ΔΨm, % depolarization, CI (g/m): 17 ± 2%
  ΔΨm, % depolarization, CII (s/r): 69 ± 2%
[2]
  ABTS·+ scavenging activity, TEAC value: 0.99 ± 0.05
  IC50: 19.6 ± 1.82 µM

## CCN1CCc2c(c3ccccc3n2CCC(=O)N2c3ccc(N(C)C)cc3Sc3cc(N(C)C)ccc32)C1.Cl.Cl.Cl [Compound 2]
[1]
  ΔΨm, % depolarization, CI (g/m): 7 ± 1%
  ΔΨm, % depolarization, CII (s/r): 48 ± 1%
[2]
  ABTS·+ scavenging activity, TEAC value: 1.03 ± 0.07
  IC50: 19.1 ± 1.52 µM

## CN1CCc2c(c3cc(F)ccc3n2CCC(=O)N2c3ccc(N(C)C)cc3Sc3cc(N(C)C)ccc32)C1 [Compound 7]
[1]
  ΔΨm, % depolarization, CI (g/m): 13 ± 3%
  ΔΨm, % depolarization, CII (s/r): 67 ± 1%
[2]
  ABTS·+ scavenging activity, TEAC value: 1.08 ± 0.08
  IC50: 19 ± 2.28 µM

Source: article PMC6424957 (Scientific Reports, 2019)
